From PubChem BioAssay (NCI)
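Test compounds were applied to cells in 96-well plates for 48 hours at 5 doses. GI50 marks 50% less growth. TGI denotes the concentration required for complete inhibition of growth.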

Key:
Assay in all cases: NCI tumour cell line growth inhibition, 48 h
[1] = test system: SF-539 CNS
[2] = test system: IGROV1 ovarian
[3] = test system: HOP-62 NSCLC
[4] = test system: OVCAR-3 ovarian
[5] = test system: CAKI-1 renal
[6] = test system: M14 melanoma
[7] = test system: NCI-H23 lung
[8] = test system: SK-MEL-5 melanoma
[9] = test system: HCT-116 colon
[10] = test system: HCT-15 colon

| Structure (SMILES) | TGI [1] [µM] | TGI [2] [µM] | TGI [3] [µM] | TGI [4] [µM] | TGI [5] [µM] | TGI [6] [µM] | TGI [7] [µM] | TGI [8] [µM] | TGI [9] [µM] | TGI [10] [µM] | GI50 [1] [µM] | GI50 [2] [µM] | GI50 [3] [µM] | GI50 [4] [µM] | GI50 [5] [µM] | GI50 [6] [µM] | GI50 [7] [µM] | GI50 [8] [µM] | GI50 [9] [µM] | GI50 [10] [µM] |
| --- | --- | --- | --- | --- | --- | --- | --- | --- | --- | --- | --- | --- | --- | --- | --- | --- | --- | --- | --- | --- |
| Cc1[nH]c2ccccc2c1-c1cc(-c2cc(-c3c(C)[nH]c4ccccc34)nc(N)n2)nc(N)n1 | > 100 | > 100 | > 100 | > 100 | > 100 | > 100 | > 100 | > 100 | > 100 | > 100 | – | – | – | – | – | – | – | – | – | – |
| C=C1c2[nH]c3ccccc3c2C2C(CC)C1CCN2C (stereo not given) | > 100 | > 100 | > 100 | > 100 | > 100 | 67.6 | > 100 | > 100 | > 100 | > 100 | – | – | – | – | – | – | – | – | – | – |
| N#CC(C#N)N=Nc1ccc(Br)cc1 | 18.3 | > 73.6 | > 100 | 15.4 | 12.1 | 16.8 | 26.7 | 34.1 | 9.44 | 15.9 | 3.57 | 3.68 | 27.1 | 2.5 | 2.05 | 3.33 | 2.42 | 5.13 | 2.44 | 3.22 |
| Nc1nc2cc3ccc(C4CC(O)C(CO)O4)cc3cc2c(=O)[nH]1 (stereo not given) | > 100 | > 100 | > 100 | > 100 | > 100 | > 100 | > 100 | > 100 | > 100 | > 100 | > 100 | > 100 | > 100 | > 100 | > 100 | > 100 | > 100 | > 100 | > 100 | > 100 |
| CC(=O)C1C(=O)NC(=O)C1=O (stereo not given) | > 100 | > 100 | > 100 | > 100 | > 100 | > 100 | > 100 | > 100 | > 100 | > 100 | – | – | – | – | – | – | – | – | – | – |
| C[C@@H]1Cc2c([nH]c3ccccc23)[C@@H](c2c(F)cc(NC3CN(CCCF)C3)cc2F)N1CC(F)(F)CO | 15.7 | 10.8 | 31.1 | 26.3 | 15.7 | 3.84 | 25.6 | 3.68 | 3.83 | 12.7 | 4.36 | 2.77 | 13.6 | 11.3 | 3.66 | 1.87 | 11.9 | 1.92 | 1.94 | 3.5 |
| O=Cc1ccc(-c2ccc(-c3nc4ccccc4o3)cc2)s1 | – | > 100 | 82 | 45.4 | 61.1 | 70 | > 100 | 45.2 | 42.6 | > 100 | – | 30.1 | 27.9 | 16.5 | 25.2 | 26.6 | 30.2 | 21.8 | 19.3 | 34.2 |
| CC(=O)[O-].[Mn+3].[O-]c1ccccc1C=NCCN=Cc1ccccc1[O-] | > 100 | > 100 | > 100 | > 100 | > 100 | > 100 | > 100 | > 100 | > 100 | > 100 | > 100 | > 100 | > 100 | 17 | > 100 | > 100 | 58.9 | 94.8 | 95.5 | 41.9 |
| CC(=O)O[C@@H]1[C@@H](O)C2=C3[C@]4(C)[C@@H]1C(C)(C)C(=O)C[C@@H]4[C@]3(O)[C@H](OC(C)=O)[C@@]1(C[C@@H]1C)C2=O | 56.1 | 30.9 | – | 36.5 | 33.2 | 91.9 | > 100 | 48.8 | 30.8 | 31.5 | – | – | – | – | – | – | – | – | – | – |
| CN(C)CCNC(=O)c1cccc2c(Nc3ccc(S(N)(=O)=O)cc3)c3ccccc3nc12 | 3.23 | 16 | 11.6 | 5.85 | 13.6 | 5.72 | 5.39 | 10.3 | 1.74 | 7.07 | – | – | – | – | – | – | – | – | – | – |
| COC(=O)CCC(=O)Nc1cc(Cl)ccc1Cl | > 100 | > 100 | > 100 | > 100 | > 100 | > 100 | > 100 | > 100 | > 100 | > 100 | – | – | – | – | – | – | – | – | – | – |
| COc1ccc(/C=C2\CC(C)CC3C2=NN(C(C)=O)C3c2ccc(OC)cc2)cc1 (stereo not given) | 38.1 | > 100 | 41.4 | 42.4 | > 100 | – | 45.2 | 31.3 | – | 38.7 | 19 | 31.6 | 20 | 18.7 | 30.5 | – | 19.6 | 13.9 | – | 16 |
| Cc1nccc2c3ccc(OCc4cn(-c5ccc(Cl)cc5)nn4)cc3n(CCCc3ccccc3)c12 | 10.6 | > 33.3 | – | 17.7 | – | 1.26 | > 33.3 | > 33.3 | > 33.3 | > 33.3 | 4.24 | 6.93 | – | 6.68 | – | 0.616 | 19.7 | 25.8 | 2.14 | 2.57 |
| COc1ccc(Cc2cc3c(cc2OCC(=O)O)OCO3)cc1 | > 100 | > 100 | > 100 | > 100 | > 100 | > 100 | > 100 | > 100 | > 100 | – | – | – | – | – | – | – | – | – | – | – |
| Cc1cc2cn3c4ccc(O)cc4[nH]c(=O)c3c2cc1C | 0.0601 | – | 1.33 | 0.0399 | 1.5 | – | 1.4 | 0.231 | – | 1.18 | 0.0223 | – | 0.0415 | 0.0125 | 0.0323 | – | 0.0744 | 0.0272 | – | 0.032 |
| O=c1cc(-c2ccccc2)oc2cc(O)cc(O)c12 | 31.3 | – | > 100 | 82.1 | – | 82.9 | 62.8 | 23.4 | 50.9 | 64 | – | – | – | – | – | – | – | – | – | – |
